Test results published in US20130096160A1, “ARYLTHIAZOLYL PIPERIDINES AND RELATED COMPOUNDS AS MODULATORS OF SURVIVAL MOTOR NEURON (SMN) PROTEIN PRODUCTION” (Secretary, Department of Health and Human Services, priority 2010, published 2013).

What was measured:
SMN1-luciferase reporter = SMN1-luciferase reporter control cell line; format: cell-based, human; conditions: SMN1-luc reporter, FIG. 1
From the text: A cell-based quantitative high throughput screening (qHTS) assay is used to identify compounds able to increase SMN production. The assay uses a SMN2-luciferase reporter to determine if exon 7 of the SMN gene is expressed, which correlates with increased full-length SMN production from the SMN2 gene. As controls, a homologue SMN1-luciferase reporter cell line looks for variations in expression of the SMN1 gene and a cell line with just the luciferase reporter looks at the capacity of the compounds to inhibit luciferase. In addition, increments in SMN production by lead compounds were confirmed by Western-Blot analysis using SMA patient fibroblasts.
The SMN reporters used herein are modified from those previously described (M. L. Zhang, C. L. Lorson, E. J. Androphy and J. Zhou, An in vivo reporter system for measuring increased inclusion of exon 7 in SMN2 mRNA: potential therapy of SMA, Gene Ther 8 (2001), pp. 1532-1538.)
The sequence of the SMN1 reporter vector used herein is given in SEQ ID NO.:1, while that of the SMN2 reporter vector is given in SEQ ID NO.:2. […]

human SMN protein = assay: Western blot of SMN protein in SMA patient fibroblasts (3813); format: cell-based; conditions: SMA patient cells (3813), 0.1-10 μM, FIG. 2
Experimental: Type I spinal muscular atrophy (SMA)-affected human primary fibroblasts (#GM03813) and carrier parents (#GM03814, parent and #GM03815, […]) are obtained live with low passage number from Coriell Cell Repositories. […] For detection of SMN protein in patient fibroblasts, 8,000 cells per cm^2 are plated 24 hours prior to drug addition. Fresh media and compound are added every 24 hours. After 72 hours, cells are harvested, washed with cold PBS, and lysed. Samples are subjected to polyacrylamide gel electrophoresis (PAGE). It is determined that 10 μg total protein per lane is within the linear range for immunoblot detection of SMN and alpha-tubulin. Western blots of the gel are probed for SMN with the 4B7 mouse monoclonal antibody (from the lab of Christian Lorson). A goat anti-mouse antibody (Santa Cruz Biotechnology/#sc-2005) conjugated to horseradish peroxidase (HRP) is used as the secondary antibody. Quantification of protein is performed by detecting chemiluminescence with a Fujifilm LAS-4000 Multifunctional Imaging System. […] We incubated a fibroblast cell line from a type I SMA patient (3813 cell line) with different doses of analogues and assessed the SMN protein level by quantitative western blotting (FIG. 4). We observed that analogue 8 m at concentration of 37 nanomolar increased the SMN protein level by 2-3 fold. […] This could be due with the intrinsic mechanism of action or to other causes, such us concentration dependent compound solubility.

`NC(=O)C1CCN(c2nc(-c3ccc(Br)cc3)cs2)CC1` [MLS000698854] was tested, and the “expression of SMN1 (in words)” value (SMN1-luciferase reporter) was “does not affect the expression of SMN1” and the “SMN protein by Western blot (in words)” value (human SMN protein) was “concentration-dependent increase in SMN protein”.
